We go through 22 compounds from PubChem BioAssay AID256 (DTP/NCI, 2004).

Values joined by “and” are separate entries in the source; they are usually repeats but may differ in a detail not shown here. Identical values can stand only once. Toxic doses and inconclusive results are not listed.

This experiment deals with CD2F1 mice, L1210 leukemia ip, survival T/C. Put plainly: NCI In Vivo Anticancer Drug Screen. Data for tumor model L1210 Leukemia (intraperitoneal) in CD2F1 (CDF1) mice. Conditions: endpoint: mean survival time, higher = longer survival. The procedure, abridged: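 Tumor-bearing mice (transplanted tumor) were split into treated and vehicle control groups, and the measured endpoint of each treated group was divided by that of its vehicle controls.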

The mark [1] stands for this setting: dose: 100.0 mg/kg/injection, schedule: Q04DX003 (ip), vehicle: saline.
[2] abbreviates: dose: 200.0 mg/kg/injection, schedule: Q04DX003 (ip), vehicle: saline.
Setting [3] is: dose: 400.0 mg/kg/injection, schedule: Q04DX003 (ip), vehicle: saline.
[4] abbreviates: dose: 100.0 mg/kg/injection, schedule: Q04DX002 (ip), vehicle: other.
[5] abbreviates: dose: 25.0 mg/kg/injection, schedule: Q01DX009 (ip), vehicle: saline with Tween-80.
The mark [6] stands for this setting: dose: 50.0 mg/kg/injection, schedule: Q01DX009 (ip), vehicle: saline with Tween-80.
Setting [7] is: dose: 100.0 mg/kg/injection, schedule: Q01DX009 (ip), vehicle: saline with Tween-80.
The mark [8] stands for this setting: dose: 12.5 mg/kg/injection, schedule: Q01DX009 (ip), vehicle: saline with Tween-80.
[9] abbreviates: dose: 100.0 mg/kg/injection, schedule: Q04DX003 (ip), vehicle: saline with Tween-80.
Setting [10] is: dose: 200.0 mg/kg/injection, schedule: Q04DX003 (ip), vehicle: saline with Tween-80.
Where [11] appears, read: dose: 100.0 mg/kg/injection, schedule: Q01DX001 (ip), vehicle: saline.
Where [12] appears, read: dose: 200.0 mg/kg/injection, schedule: Q01DX001 (ip), vehicle: saline.
Where [13] appears, read: dose: 400.0 mg/kg/injection, schedule: Q01DX001 (ip), vehicle: saline.
[14] abbreviates: dose: 100.0 mg/kg/injection, schedule: Q04DX002 (ip), vehicle: saline with Tween-80.
Where [15] appears, read: dose: 100.0 mg/kg/injection, schedule: Q01DX001 (ip), vehicle: saline with Tween-80.
[16] abbreviates: dose: 200.0 mg/kg/injection, schedule: Q01DX001 (ip), vehicle: saline with Tween-80.
[17] abbreviates: dose: 400.0 mg/kg/injection, schedule: Q01DX001 (ip), vehicle: saline with Tween-80.
The mark [18] stands for this setting: dose: 200.0 mg/kg/injection, schedule: Q01DX009 (ip), vehicle: saline with Tween-80.
Where [19] appears, read: dose: 400.0 mg/kg/injection, schedule: Q01DX009 (ip), vehicle: saline with Tween-80.
The mark [20] stands for this setting: dose: 200.0 mg/kg/injection, schedule: Q04DX002 (ip), vehicle: saline with Tween-80.

Turning to `O=c1ccccn1CC(O)S(=O)(=O)O` (centres undefined), the T/C is 95 % of control under setting [1], 92 % of control under setting [2] and 100 % of control under setting [3].
Take `N#C/C(=C/C=C/c1ccccc1)c1ccc([N+](=O)[O-])cc1`: the T/C reads like this: under setting [4], 111 % of control; (dose: 200.0 mg/kg/injection, schedule: Q04DX002 (ip), vehicle: other) 100 % of control; (dose: 400.0 mg/kg/injection, schedule: Q04DX002 (ip), vehicle: other) 96 % of control.
Take `O=C(O)C1C(c2ccccc2)=C(c2ccccc2)c2ccccc21` (centres undefined): the T/C by setting is: under setting [5], 94 % of control; under setting [6], 93 % of control; under setting [7], 98 % of control.
As to `COc1cc(OC)c(OC)cc1/C=C\c1ccc2ccccc2[n+]1C`, the T/C by setting is: under setting [8], 100 % of control; under setting [5], 91 % of control; under setting [9], 104 % of control.
Take `CC(=O)CC(=O)Nc1ccccc1`: the T/C by setting is: under setting [8], 101 % of control; under setting [5], 97 % of control; under setting [6], 97 % of control.
In the case of `O=C(/C=C/C=C/c1ccccc1)c1ccc(Cl)cc1`, the T/C (dose: 37.5 mg/kg/injection, schedule: Q04DX003 (ip), vehicle: saline with Tween-80) was 97 % of control; the T/C (dose: 75.0 mg/kg/injection, schedule: Q04DX003 (ip), vehicle: saline with Tween-80) was 97 % of control; the T/C (dose: 150.0 mg/kg/injection, schedule: Q04DX003 (ip), vehicle: saline with Tween-80) is 89 % of control; the T/C under setting [10] was 90 % of control; the T/C (dose: 300.0 mg/kg/injection, schedule: Q04DX003 (ip), vehicle: saline with Tween-80) was 93 % of control.
As for `CC1C(OC(=O)CCl)CCC2C1(C)CCC1C2(C)CCC2(C)C3CC(C)(C)CCC3(C)CCC12C` (centres undefined), the T/C runs as follows: under setting [11], 97 % of control; under setting [12], 97 % of control; under setting [13], 97 % of control.
On to `O=[N+]([O-])c1ccc(NN=C2c3ccccc3Cc3ccccc32)c([N+](=O)[O-])c1`, for which the T/C (dose: 25.0 mg/kg/injection, schedule: Q04DX002 (ip), vehicle: saline with Tween-80) is 98 % of control; the T/C (dose: 50.0 mg/kg/injection, schedule: Q04DX002 (ip), vehicle: saline with Tween-80) is 91 % of control; the T/C under setting [14] is 87 % of control.
For `CCOC(=O)C(=O)c1c(N)n(C)c(=O)n(C)c1=O`, the T/C reads like this: (dose: 6.25 mg/kg/injection, schedule: Q01DX009 (ip), vehicle: Klucel (hydroxypropylcellulose) (HPC)) 112 % of control; (dose: 12.5 mg/kg/injection, schedule: Q01DX009 (ip), vehicle: Klucel (hydroxypropylcellulose) (HPC)) 87 % of control; (dose: 25.0 mg/kg/injection, schedule: Q01DX009 (ip), vehicle: Klucel (hydroxypropylcellulose) (HPC)) 102 % of control.
As for `Cc1cc(NCCN(C(C)C)C(C)C)nc(Nc2nc3ccc(Cl)cc3[nH]2)n1`, the T/C by setting is: (dose: 0.75 mg/kg/injection, schedule: Q01DX009 (ip), vehicle: saline with Tween-80) 103 % of control; (dose: 1.5 mg/kg/injection, schedule: Q01DX009 (ip), vehicle: saline with Tween-80) 90 % of control; (dose: 3.0 mg/kg/injection, schedule: Q01DX009 (ip), vehicle: saline with Tween-80) 106 % of control; (dose: 6.25 mg/kg/injection, schedule: Q01DX009 (ip), vehicle: saline with Tween-80) 92 % of control; under setting [8], 92 % of control; under setting [15], 96 % of control. Besides, the T/C is, setting by setting: under setting [16], 96 % of control; under setting [17], 98 % of control.
Consider `N#CSc1ccc2c(ccn2C2OCC(O)C(O)C2O)c1` (centres undefined), for which the T/C is 93 % of control (dose: 12.5 mg/kg/injection, schedule: Q01DX005 (ip), vehicle: other); 93 % of control (dose: 25.0 mg/kg/injection, schedule: Q01DX005 (ip), vehicle: other); 101 % of control (dose: 50.0 mg/kg/injection, schedule: Q01DX005 (ip), vehicle: other).
Regarding `CC1CCC2(C)CCC3(C)C4=CCC5C(C)(C)C(O)CCC5(C)C4CCC3(C)C2C1C` (centres undefined), the T/C by setting is: under setting [2], 89 % of control; under setting [3], 96 % of control.
With `COc1ccc(C(C#N)Nc2ccccc2)cc1` (centres undefined), the T/C runs as follows: under setting [7], 106 % of control; (dose: 100.0 mg/kg/injection, schedule: Q04DX003 (ip), vehicle: saline sonified) 97 % of control; under setting [18], 104 % of control; (dose: 200.0 mg/kg/injection, schedule: Q04DX003 (ip), vehicle: saline sonified) 89 % of control; under setting [19], 103 % of control; (dose: 400.0 mg/kg/injection, schedule: Q04DX003 (ip), vehicle: saline sonified) 103 % of control.
Turning to `COC(=O)C1CC2C(CCC3C(C)(C(=O)OC)CCCC23C)C(=O)C1(O)C(C)C` (centres undefined), the T/C was 101 % of control under setting [9]; 105 % of control under setting [10]; 91 % of control (dose: 400.0 mg/kg/injection, schedule: Q04DX003 (ip), vehicle: saline with Tween-80).
With `Cc1ccc(NC(=O)ON(C)C)cc1`, under setting [4], the T/C is 102 % of control.
Regarding `O=C1CC(=O)C(CCc2cccc3ccccc23)C1=O` (centres undefined), the T/C was 86 % of control under setting [15]; 100 % of control under setting [14]; 94 % of control under setting [16]; 93 % of control under setting [20]; 105 % of control under setting [17].
On to `CN(CO)c1nc(N(C)CO)nc(N(C)CO)n1`, for which the T/C reads like this: (dose: 12.5 mg/kg/injection, schedule: Q01DX009 (ip), vehicle: saline) 106 % of control and 108 % of control; (dose: 25.0 mg/kg/injection, schedule: Q01DX009 (ip), vehicle: saline) 105 % of control and 108 % of control; (dose: 50.0 mg/kg/injection, schedule: Q01DX009 (ip), vehicle: saline) 118 % of control and 110 % of control; (dose: 100.0 mg/kg/injection, schedule: Q01DX009 (ip), vehicle: saline) 117 % of control.
On to `CC1(CCO)NC(=O)NC1=O` (centres undefined), for which the T/C is 97 % of control (dose: 100.0 mg/kg/injection, schedule: Q01DX009 (ip), vehicle: saline sonified); 100 % of control under setting [1]; 97 % of control (dose: 200.0 mg/kg/injection, schedule: Q01DX009 (ip), vehicle: saline sonified); 96 % of control under setting [2]; 97 % of control (dose: 400.0 mg/kg/injection, schedule: Q01DX009 (ip), vehicle: saline sonified); 100 % of control under setting [3].
For `COC(=O)C1(C)CCCC2(C)C1CCC13OC(=O)C(C(C)C)(CC21)C3O` (centres undefined), the T/C by setting is: under setting [7], 94 % of control; under setting [18], 88 % of control; under setting [19], 92 % of control.
`CCCN(CCC)S(=O)(=O)c1ccc(NC(=O)OC2CCCC2)cc1`: the T/C by setting is: under setting [11], 104 % of control; under setting [12], 106 % of control; under setting [13], 105 % of control.
Regarding `Clc1ccc(SSc2ccc(Cl)cc2Cl)c(Cl)c1`, the T/C by setting is: under setting [14], 90 % of control; under setting [20], 104 % of control; (dose: 400.0 mg/kg/injection, schedule: Q04DX002 (ip), vehicle: saline with Tween-80) 95 % of control.
As for `CC[C@@]1(O)C(=O)OCc2c1cc1n(c2=O)Cc2cc3cc(OC)ccc3nc2-1`, the T/C runs as follows: (dose: 0.78 mg/kg/injection, schedule: Q04DX003 (ip), vehicle: water) 119 % of control; (dose: 3.13 mg/kg/injection, schedule: Q04DX003 (ip), vehicle: water) 155 % of control and 181 % of control; (dose: 6.25 mg/kg/injection, schedule: Q04DX003 (ip), vehicle: water) 113 % of control.
